How the values were obtained:
[1] = test system: three-dimensional skin model (EPI-200 Kit); test: Residual property in three-dimensional skin model (composition of permeated solution after 24 hours); details: 0.1% test sample in 30% ethanol
Description: (§1) “EPI Assay Medium”, a product name of EPI100 assay medium commercialized by Kurabo Industries Ltd., Okayama, Japan, was added to “12-WELL MULTI-MICROPLATE”, a product name of 12-well plate commercialized by Becton, Dickinson and Company, NJ, USA, in a volume of 0.33 ml/well; and “EPI-200 Kit”, a product name of a three-dimensional skin model cup, commercialized by Kanebo Cosmetics Inc., Tokyo, Japan, was transferred to each well. […] 5′-Glucosyladenosine prepared by the method in Experiment 1-2,3′-glucosyladenosine prepared by the method in Experiment 2, or adenosine was dissolved in 30% ethanol to give a final concentration of 0.1%, and 0.1 ml of each of the resulting solutions was added to each of the skin model cup. After incubating at 37° C. for 24 hours in a 5% CO2 condition, sample solutions (media in wells) were collected, subjected to ultrafiltration with “[sequence] 0.5 BIOMAX-5 MEMBRANE”, a product name of membrane commercialized by Nihon Millipore K.K., Tokyo, Japan, and diluted with the mobile phase. The diluent was subjected to HPLC under the following conditions and determined for the contents of 5′- and 3′-glucosyladenosines with an alternatively prepared standard curve.
<Conditions for HPLC Analysis>
(§2) Apparatus: an HPLC Pump, MODEL 510; a pump controller, MODEL 680; an autoinjector, MODEL 712; a detector, MODEL 2487; a data processing (quantity calculation), EMPOWER 2 SOFTWARRE, commercialized by Nihon Millipore K.K., Tokyo, Japan;
(§3) Column: “YMC-PACK ODS AQ-303”, a product name of an ODS column, ø4.6 mm×250 mm, commercialized by YMC Co., Ltd., Kyoto, Japan;
(§4) Mobile phase: {20 mM Acetic acid-ammonium acetate buffer (pH 3.5)}/(methanol)=92/8 (v/v);
Detection wavelength: 260 nm;
Injection volume: 10 μl; and
Column temperature: 40° C.

[2] = test system: three-dimensional skin model (EPI-200 Kit); details: human, 24 h, 0.1 %
Description: as §1
<Conditions for HPLC Analysis>
as §2, §3, §4
Detection wavelength: 260 nm;
Injection volume: 10 μl; and
Column temperature: 40° C.

Nc1ncnc2c1ncn2[C@@H]1O[C@H](CO)[C@@H](O[C@H]2O[C@H](CO)[C@@H](O)[C@H](O)[C@H]2O)[C@H]1O [3′-Glucosyladenosine, α-D-glucopyranosyl-(1→3′)-adenosine]
Composition of permeated solution: 3′-glucosyladenosine [1]: 27% | Concentration of 3′-glucosyladenosine in permeated solution [1]: 25 µM

Nc1ncnc2c1ncn2[C@@H]1O[C@H](CO[C@H]2O[C@H](CO)[C@@H](O)[C@H](O)[C@H]2O)[C@@H](O)[C@H]1O [5′-Glucosyladenosine, α-D-glucopyranosyl-(1→5′)-adenosine]
Composition of permeated solution: 5′-glucosyladenosine [1]: 65% | Concentration of 5′-glucosyladenosine in permeated solution [1]: 60 µM

Nc1ncnc2c1ncn2[C@@H]1O[C@H](CO)[C@@H](O)[C@H]1O [Adenosine, reference compound]
Composition of permeated solution: adenosine [2]: 0% | Composition of permeated solution: hypoxanthine [2]: 77% | Composition of permeated solution: inosine [2]: 23% | Concentration of adenosine in permeated solution [2]: 0 nM | Concentration of hypoxanthine in permeated solution [2]: 187 µM | Concentration of inosine in permeated solution [2]: 55 µM

Source: patent US9492368B2, “External preparation for skin” (HAYASHIBARA CO., LTD., priority 2011, dated 2016)
